Assay results published in US20010008891A1, “PHARMACEUTICAL COMPOSITIONS COMPRISING A XANTHINE AND A CATECHIN” (priority 1998, published 2001).

Test system: human platelet rich plasma
Experiment: ADP induced platelet aggregation test in human platelet rich plasma
Assay type: cell-based
Procedure: The antiplatelet aggregatory activity was measured using human platelet rich plasma as described below, and in Subbiah et al. Brazilian Journal of Medical and Biological Research 1988; 21: 535-538.
Platelet-rich plasma (PRP) was obtained by centrifuging blood collected in 3.8% trisodium citrate (9:1, v/v) from human volunteers or from the blood bank for 15 minutes at 700 rpm. Remaining blood was centrifuged at 2500 rpm for 25 minutes to obtain platelet-poor plasma (PPP). The platelets were quantified with an electronic counter (Coulter Electronics, Inc., Hialeah, Fla.). The platelet count was adjusted to 300,000-350,000/mm^3 with PPP, and 0.45 ml used in each test of aggregation.
ADP (Sigma Chemical Co. St. Louis, Mo.) (0.1 mg/ml), and arachidonic acid (NuCheck Pre, Elysian, Minn.) (1.0 mg/ml in 20 mM Na2CO3) were used as aggregatory agents. Samples were warmed to 37° C. with stirring for approximately two minutes prior to the addition of 50 μl of aggregating agents. Guarana (or its fractions) or caffeine (alone or in combination with catechins) were added before the addition of ADP or arachidonic acid. The change in percentage light transmission was recorded with a dual aggregometer (Chrono-Log Co, Havertown, Pa.) after addition of aggregation agents.

Cn1c(=O)c2c(ncn2C)n(C)c1=O [caffeine]
platelet aggregation inhibitory activity (in words): only weakly active
